Reference: US9802937B2, “Substituted pyrazolo{4,3-D}pyrimidines as kinase inhibitors” (ORIGENIS GMBH, priority 2011, dated 2017)

molecular target: T1, SYK kinase (Homo sapiens, UniProt P43405); experiment: SYK Assay (OMNIA KINASE ASSAY, SOX peptide fluorescence); type: biochemical; conditions: apparent Ki calculated from the IC50 using the Cheng-Prusoff equation; 1 mM ATP, 30° C.; read-out: SYK Activities: Ki
T1 construct: purchased Invitrogen, Carlsbad
Procedure: In the assay OMNIA® KINASE ASSAY by Invitrogen Corporation (Carlsbad) the effect of invention of a compound on the phosphorylation is determined by measurement of fluorescence intensity of a chelation-enhanced fluorophore called SOX. Upon phosphorylation of the peptide by the kinase of interest, Mg2+ is chelated to form a bridge between the SOX moiety and the phosphate group that is transferred to the specific tyrosine on the peptide. The fluorescence intensity is directly proportional to the amount of peptide phosphorylation.
To the wells of an 384 well small volume plate (Greiner, Frickenhausen) are added (i) the compound under test in 5% DMSO/distilled water (2 μl), (ii) 16 μl of the master mix containing ATP, DTT, Kinase Reaction Buffer, Omina Peptide Substrate Tyr 7 resulting in a final concentration of 1 mM ATP, 0.2 mM DTT and 10 μM Peptide Substrate.
The Master Mix and the assay plate was incubated to reaction temperature before the measurement (30° C.). The reaction was started with addition of (iii) 2 μl 4 μg/ml SYK kinase (Invitrogen, Carlsbad). During measurement fluorescence intensitiy readings were collected using a TECAN M1000 at a wavelength of λex 360/λem 485 nm every 30 s for 30 minutes. The reaction velocity was plotted versus the inhibitor concentration to determine the […] using XLFit 5.0 (IDBS, Guildford) to fit to a sigmoidal dose response curve, and the apparent Ki values were calculated from the IC50 using the Cheng-Prusoff equation (Cheng, Y.; Prusoff, W. H. Biochem. Pharmacol. 22, 3099-3108, 1973).

**Q.** With COc1ccc(Nc2nc(-c3ccc(F)cc3)nc3cn[nH]c23)cc1OC [Example #270, N-(3,4-dimethoxyphenyl)-5-(4-fluorophenyl)-1H-pyrazolo[4,3-d]pyrimidin-7-amine] as the compound, how does the Ki read?
**A.** 10 to 100 nM

**Q.** For CN(C)c1ccc(Nc2nc(-c3ccc(N4CCCC4)nc3)nc3cn[nH]c23)cc1 [Example #31, N1,N1-dimethyl-N4-(5-(6-(pyrrolidin-1-yl)pyridin-3-yl)-1H-pyrazolo[4,3-d]pyrimidin-7-yl)benzene-1,4-diamine], which Ki is on record?
**A.** < 10 nM

**Q.** CSc1cccc(-c2nc(Nc3ccc4c(c3)NC(=O)CC4)c3[nH]ncc3n2)c1 [Example #236, 7-((5-(3-(methylthio)phenyl)-1H-pyrazolo[4,3-d]pyrimidin-7-yl)amino)-3,4-dihydroquinolin-2(1H)-one] was tested. Which Ki did it give?
**A.** 10 to 100 nM

**Q.** With c1csc(-c2nc(Nc3cc(C4CC4)[nH]n3)c3[nH]ncc3n2)c1 [Example #90, N-(5-cyclopropyl-1H-pyrazol-3-yl)-5-(thiophen-2-yl)-1H-pyrazolo[4,3-d]pyrimidin-7-amine] as the compound, how does the Ki read?
**A.** 10 to 100 nM

**Q.** FS(F)(F)(F)(F)c1cccc(-c2nc(Nc3ccc(N4CCOCC4)cc3)c3[nH]ncc3n2)c1 [Example #220, 5-(3-(pentafluorosulfanyl)phenyl)-N-(4-morpholinophenyl)-1H-pyrazolo[4,3-d]pyrimidin-7-amine] was tested. Which Ki did it give?
**A.** 10 to 100 nM

**Q.** For COc1ccc(Nc2nc(-c3cccc(OC(F)(F)F)c3)nc3cn[nH]c23)cc1OC [Example #226, N-(3,4-dimethoxyphenyl)-5-(3-(trifluoromethoxy)phenyl)-1H-pyrazolo[4,3-d]pyrimidin-7-amine], which Ki is on record?
**A.** 10 to 100 nM

**Q.** Which Ki does the source give for CN1CCN(c2ccc(Nc3nc(-c4ccccc4O)nc4cn[nH]c34)cc2)CC1 [Example #105, 2-(7-((4-(4-methylpiperazin-1-yl)phenyl)amino)-1H-pyrazolo[4,3-d]pyrimidin-5-yl)phenol] here?
**A.** 10 to 100 nM

**Q.** How did the Ki turn out when CSc1cccc(-c2nc(Nc3ccc(N4CCOCC4)cc3)c3[nH]ncc3n2)c1 [Example #224, 5-(3-(methylthio)phenyl)-N-(4-morpholinophenyl)-1H-pyrazolo[4,3-d]pyrimidin-7-amine] was run?
**A.** 100 to 1000 nM

**Q.** Which Ki does the source give for CN1CCC(CNc2nc(C(=O)c3ccccc3)nc3cn[nH]c23)CC1 [Example #151, (7-(((1-methylpiperidin-4-yl)methyl)amino)-1H-pyrazolo[4,3-d]pyrimidin-5-yl)(phenyl)methanone] here?
**A.** < 10 nM

**Q.** How did the Ki turn out when O=C(O)c1ccc(Nc2nc(-c3cn4ccccc4n3)nc3cn[nH]c23)cc1 [Example #128, 4-((5-(imidazo[1,2-a]pyridin-2-yl)-1H-pyrazolo[4,3-d]pyrimidin-7-yl)amino)benzoic-acid] was run?
**A.** < 10 nM

**Q.** CN1CCC(c2nc(Nc3cc[nH]n3)c3[nH]ncc3n2)CC1 [Example #55, 5-(1-methylpiperidin-4-yl)-N-(1H-pyrazol-3-yl)-1H-pyrazolo[4,3-d]pyrimidin-7-amine] was tested. Which Ki did it give?
**A.** 100 to 1000 nM

**Q.** Which Ki does the source give for O=C1CSc2ccc(Nc3nc(-c4cccs4)nc4cn[nH]c34)cc2N1 [Example #165, 6-((5-(thiophen-2-yl)-1H-pyrazolo[4,3-d]pyrimidin-7-yl)amino)-2H-benzo[b][1,4]thiazin-3(4H)-one] here?
**A.** 10 to 100 nM

**Q.** CN1CCN(c2ccc(Nc3nc(-c4cccc(N5CCOCC5)c4)nc4cn[nH]c34)cc2)CC1 [Example #106, N-(4-(4-methylpiperazin-1-yl)phenyl)-5-(3-morpholinophenyl)-1H-pyrazolo[4,3-d]pyrimidin-7-amine] was tested. Which Ki did it give?
**A.** 10 to 100 nM

**Q.** How did the Ki turn out when CN1CCN(c2ccc(Nc3nc(-c4cccc(C(=O)O)n4)nc4cn[nH]c34)cc2)CC1 [Example #177, 6-(7-((4-(4-methylpiperazin-1-yl)phenyl)amino)-1H-pyrazolo[4,3-d]pyrimidin-5-yl)picolinic acid] was run?
**A.** 10 to 100 nM

**Q.** Which Ki does the source give for CC(=O)N1CCN(c2ccc(Nc3nc(-c4cccc(S(C)(=O)=O)c4)nc4cn[nH]c34)cc2)CC1 [Example #246, 1-(4-(4-((5-(3-(methylsulfonyl)phenyl)-1H-pyrazolo[4,3-d]pyrimidin-7-yl)amino)phenyl)piperazin-1-yl)ethan-1-one] here?
**A.** < 10 nM

**Q.** O=C1CCc2ccc(Nc3nc(-c4ccc5c(c4)NC(=O)CO5)nc4cn[nH]c34)cc2N1 [Example #287, 6-(7-((2-oxo-1,2,3,4-tetrahydroquinolin-7-yl)amino)-1H-pyrazolo[4,3-d]pyrimidin-5-yl)-2H-benzo[b][1,4]oxazin-3(4H)-one] was tested. Which Ki did it give?
**A.** 10 to 100 nM

**Q.** With COc1ccccc1-c1nc(Nc2ccc(N3CCOCC3)cc2)c2[nH]ncc2n1 [Example #112, 5-(2-methoxyphenyl)-N-(4-morpholinophenyl)-1H-pyrazolo[4,3-d]pyrimidin-7-amine] as the compound, how does the Ki read?
**A.** 10 to 100 nM

**Q.** COc1ccc(Nc2nc(-c3cccc(N4CCOCC4)c3)nc3cn[nH]c23)cc1OC [Example #107, N-(3,4-dimethoxyphenyl)-5-(3-morpholinophenyl)-1H-pyrazolo[4,3-d]pyrimidin-7-amine] was tested. Which Ki did it give?
**A.** 10 to 100 nM

**Q.** Which Ki does the source give for CC1(C)CNc2cc(Nc3nc(-c4ccsc4)nc4cn[nH]c34)ccc2S1 [Example #148, 2,2-dimethyl-N-(5-(thiophen-3-yl)-1H-pyrazolo[4,3-d]pyrimidin-7-yl)-3,4-dihydro-2H-benzo[b][1,4]thiazin-6-amine] here?
**A.** 100 to 1000 nM

**Q.** For CN(C)CCCOc1cccc(-c2nc(Nc3ccc(N4CCN(C)CC4)cc3)c3[nH]ncc3n2)c1 [Example #181, 5-(3-(3-(dimethylamino)propoxy)phenyl)-N-(4-(4-methylpiperazin-1-yl)phenyl)-1H-pyrazolo[4,3-d]pyrimidin-7-amine], which Ki is on record?
**A.** 10 to 100 nM

**Q.** Which Ki does the source give for c1cncc(-c2cccc(-c3nc(Nc4ccc(N5CCOCC5)cc4)c4[nH]ncc4n3)c2)c1 [Example #102, N-(4-morpholinophenyl)-5-(3-(pyridin-3-yl)phenyl)-1H-pyrazolo[4,3-d]pyrimidin-7-amine] here?
**A.** 10 to 100 nM

**Q.** COc1ccc(Nc2nc(-c3cccc(C(F)(F)F)c3)nc3cn[nH]c23)cc1OC [Example #228, N-(3,4-dimethoxyphenyl)-5-(3-(trifluoromethyl)phenyl)-1H-pyrazolo[4,3-d]pyrimidin-7-amine] was tested. Which Ki did it give?
**A.** 10 to 100 nM

**Q.** For c1cncc(-c2cccc(-c3nc(Nc4ccc5cn[nH]c5c4)c4[nH]ncc4n3)c2)c1 [Example #104, N-(1H-indazol-6-yl)-5-(3-(pyridin-3-yl)phenyl)-1H-pyrazolo[4,3-d]pyrimidin-7-amine], which Ki is on record?
**A.** 10 to 100 nM

**Q.** How did the Ki turn out when Fc1ccc(-c2nc(Nc3ccc(N4CCOCC4)cc3)c3[nH]ncc3n2)cc1F [Example #273, 5-(3,4-difluorophenyl)-N-(4-morpholinophenyl)-1H-pyrazolo[4,3-d]pyrimidin-7-amine] was run?
**A.** 10 to 100 nM

**Q.** For COC(=O)c1cccc(-c2nc(Nc3ccc4c(c3)NC(=O)CO4)c3[nH]ncc3n2)c1 [Example #211, methyl 3-(7-((3-oxo-3,4-dihydro-2H-benzo[b][1,4]oxazin-6-yl)amino)-1H-pyrazolo[4,3-d]pyrimidin-5-yl)benzoate], which Ki is on record?
**A.** 10 to 100 nM

**Q.** COC(=O)c1ccc(-c2nc(Nc3ccc(N4CCN(C)CC4)cc3)c3[nH]ncc3n2)cc1 [Example #213, methyl 4-(7-((4-(4-methylpiperazin-1-yl)phenyl)amino)-1H-pyrazolo[4,3-d]pyrimidin-5-yl)benzoate] was tested. Which Ki did it give?
**A.** < 10 nM

**Q.** How did the Ki turn out when CC(C)(C)c1cccc(Nc2nc(-c3cccs3)nc3cn[nH]c23)c1 [Example #305, N-(3-(tert-butyl)phenyl)-5-(thiophen-2-yl)-1H-pyrazolo[4,3-d]pyrimidin-7-amine] was run?
**A.** 100 to 1000 nM

**Q.** How did the Ki turn out when CS(=O)(=O)c1ccccc1Nc1nc(-c2cccs2)nc2cn[nH]c12 [Example #291, N-(2-(methylsulfonyl)phenyl)-5-(thiophen-2-yl)-1H-pyrazolo[4,3-d]pyrimidin-7-amine] was run?
**A.** 10 to 100 nM

**Q.** COC(=O)c1ccc(-c2nc(Nc3ccc(N4CCOCC4)cc3)c3[nH]ncc3n2)cc1 [Example #242, methyl 4-(7-((4-morpholinophenyl)amino)-1H-pyrazolo[4,3-d]pyrimidin-5-yl)benzoate] was tested. Which Ki did it give?
**A.** 10 to 100 nM

**Q.** How did the Ki turn out when CN1CCC(c2nc(Nc3ccc(N4CCOCC4)cc3)c3[nH]ncc3n2)CC1 [Example #52, 5-(1-methylpiperidin-4-yl)-N-(4-morpholinophenyl)-1H-pyrazolo[4,3-d]pyrimidin-7-amine] was run?
**A.** 10 to 100 nM

**Q.** For FS(F)(F)(F)(F)c1ccc(Nc2nc(-c3ccsc3)nc3cn[nH]c23)cc1 [Example #178, N-(4-(pentafluorosulfanyl)phenyl)-5-(thiophen-3-yl)-1H-pyrazolo[4,3-d]pyrimidin-7-amine], which Ki is on record?
**A.** 100 to 1000 nM

**Q.** CCN1CCN(c2ccc(Nc3nc(-c4cn5ccccc5n4)nc4cn[nH]c34)cc2)CC1 [Example #125, N-(4-(4-ethylpiperazin-1-yl)phenyl)-5-(imidazo[1,2-a]pyridin-2-yl)-1H-pyrazolo[4,3-d]pyrimidin-7-amine] was tested. Which Ki did it give?
**A.** 10 to 100 nM

**Q.** With O=S(=O)(c1cccc(Nc2nc(-c3cccs3)nc3cn[nH]c23)c1)N1CCOCC1 [Example #266, N-(3-(morpholinosulfonyl)phenyl)-5-(thiophen-2-yl)-1H-pyrazolo[4,3-d]pyrimidin-7-amine] as the compound, how does the Ki read?
**A.** 100 to 1000 nM

**Q.** Which Ki does the source give for CN1CCN(c2ccc(Nc3nc(-c4cccc(S(F)(F)(F)(F)F)c4)nc4cn[nH]c34)cc2)CC1 [Example #221, N-(4-(4-methylpiperazin-1-yl)phenyl)-5-(3-(pentafluorosulfanyl)phenyl)-1H-pyrazolo[4,3-d]pyrimidin-7-amine] here?
**A.** 10 to 100 nM
